In ChEMBL document CHEMBL1201862, “PubChem BioAssay data set” (2004):
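Following 48 hours of exposure in 96-well plates, responses at five concentrations were used to interpolate endpoints linearly. GI50 is the concentration that inhibits growth by half.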 The source made the active and inactive calls. Rule as the data show it: active = GI50 up to about 1.1 µM and inactive = higher.

Assays:
Assay in all cases: inhibition of tumour cell growth, NCI panel, 48 h
U-251 = system: U-251
DMS-273 = system: DMS-273
KM12 = system: KM12
HCC 2998 = system: HCC 2998
LXFL 529 = system: LXFL 529
MOLT-4 = system: MOLT-4
COLO 205 = system: COLO 205
SK-MEL-2 = system: SK-MEL-2
UACC-257 = system: UACC-257
SK-MEL-5 = system: SK-MEL-5
DMS-114 = system: DMS-114
OVCAR-5 = system: OVCAR-5
HOP-92 = system: HOP-92
HT-29 = system: HT-29
SR = system: SR
RXF 393 = system: RXF 393
SN12C = system: SN12C
NCI-H23 = system: NCI-H23
Malme-3M = system: Malme-3M
SNB-78 = system: SNB-78
DLD-1 = system: DLD-1
XF498 = system: XF498
SNB-75 = system: SNB-75
HOP-18 = system: HOP-18
SF-539 = system: SF-539
HCT-15 = system: HCT-15
LOX IMVI = system: LOX IMVI
HOP-62 = system: HOP-62
SNB-19 = system: SNB-19
RXF 631 = system: RXF 631
ACHN = system: ACHN
OVCAR-3 = system: OVCAR-3
SK-MEL-28 = system: SK-MEL-28
IGROV-1 = system: IGROV-1
CAKI-1 = system: CAKI-1
SF-295 = system: SF-295
NCI-H522 = system: NCI-H522
M14 = system: M14
A498 = system: A498
M19-MEL = system: M19-MEL
NCI-H226 = system: NCI-H226
OVCAR-4 = system: OVCAR-4
A549 = system: A549
HCT-116 = system: HCT-116
UO-31 = system: UO-31
TK-10 = system: TK-10
SK-OV-3 = system: SK-OV-3
OVCAR-8 = system: OVCAR-8
786-0 = system: 786-0
SF-268 = system: SF-268
NCI-H460 = system: NCI-H460
CCRF-CEM = system: CCRF-CEM
EKVX = system: EKVX
HL-60 = system: HL-60
UACC-62 = system: UACC-62
KM-20L2 = system: KM-20L2
K562 = system: K562
RPMI-8226 = system: RPMI-8226
SW-620 = system: SW-620

## CCN(CC)CC(C(=O)Nc1c(C)cccc1C)/C(C)=N\NC(=O)c1ccncc1 (configuration not stated)
U-251
  GI50: > 100 µM (inactive)
DMS-273
  GI50: > 100 µM (inactive)
KM12
  GI50: > 100 µM (inactive)
HCC 2998
  GI50: > 100 µM (inactive)
LXFL 529
  GI50: > 100 µM (inactive)
MOLT-4
  GI50: > 100 µM (inactive)
COLO 205
  GI50: > 100 µM (inactive)
SK-MEL-2
  GI50: > 100 µM (inactive)
UACC-257
  GI50: > 100 µM (inactive)
SK-MEL-5
  GI50: > 100 µM (inactive)
DMS-114
  GI50: > 100 µM (inactive)
OVCAR-5
  GI50: > 100 µM (inactive)
HOP-92
  GI50: > 100 µM (inactive)
HT-29
  GI50: > 100 µM (inactive)
SR
  GI50: > 100 µM (inactive)
RXF 393
  GI50: > 100 µM (inactive)
SN12C
  GI50: > 100 µM (inactive)
NCI-H23
  GI50: > 100 µM (inactive)
Malme-3M
  GI50: > 100 µM (inactive)
SNB-78
  GI50: > 100 µM (inactive)
DLD-1
  GI50: > 100 µM (inactive)
XF498
  GI50: > 100 µM (inactive)
SNB-75
  GI50: > 100 µM (inactive)
HOP-18
  GI50: > 100 µM (inactive)
SF-539
  GI50: > 100 µM (inactive)
HCT-15
  GI50: > 100 µM
LOX IMVI
  GI50: > 100 µM (inactive)
HOP-62
  GI50: > 100 µM (inactive)
SNB-19
  GI50: > 100 µM (inactive)
RXF 631
  GI50: > 100 µM (inactive)
ACHN
  GI50: > 100 µM (inactive)
OVCAR-3
  GI50: > 100 µM (inactive)
SK-MEL-28
  GI50: > 100 µM (inactive)
IGROV-1
  GI50: > 100 µM (inactive)
CAKI-1
  GI50: > 100 µM (inactive)
SF-295
  GI50: > 100 µM (inactive)
NCI-H522
  GI50: > 100 µM (inactive)
M14
  GI50: > 100 µM (inactive)
A498
  GI50: > 100 µM (inactive)
M19-MEL
  GI50: > 100 µM (inactive)
NCI-H226
  GI50: > 100 µM (inactive)
OVCAR-4
  GI50: > 100 µM (inactive)
A549
  GI50: > 100 µM (inactive)
HCT-116
  GI50: > 100 µM (inactive)
UO-31
  GI50: > 100 µM (inactive)
TK-10
  GI50: > 100 µM (inactive)
SK-OV-3
  GI50: > 100 µM (inactive)
OVCAR-8
  GI50: > 100 µM (inactive)
786-0
  GI50: > 100 µM (inactive)
SF-268
  GI50: > 100 µM (inactive)
NCI-H460
  GI50: > 100 µM (inactive)

## O=[N+]([O-])c1cnn(C2=CNc3ccccc3N=C2)c1
U-251
  GI50: > 100 µM (inactive)
DMS-273
  GI50: > 100 µM (inactive)
HCC 2998
  GI50: > 100 µM (inactive)
MOLT-4
  GI50: > 100 µM (inactive)
COLO 205
  GI50: > 100 µM (inactive)
SK-MEL-2
  GI50: > 100 µM (inactive)
UACC-257
  GI50: > 100 µM (inactive)
OVCAR-5
  GI50: > 100 µM (inactive)
HOP-92
  GI50: > 100 µM (inactive)
HT-29
  GI50: > 100 µM (inactive)
SR
  GI50: > 100 µM (inactive)
RXF 393
  GI50: 46.7 µM (inactive)
SN12C
  GI50: > 100 µM (inactive)
NCI-H23
  GI50: > 100 µM (inactive)
Malme-3M
  GI50: > 100 µM (inactive)
SNB-78
  GI50: > 100 µM (inactive)
DLD-1
  GI50: > 100 µM (inactive)
XF498
  GI50: > 100 µM (inactive)
SNB-75
  GI50: 43.8 µM (inactive)
HOP-18
  GI50: > 100 µM (inactive)
SF-539
  GI50: > 100 µM (inactive)
HCT-15
  GI50: > 100 µM
HOP-62
  GI50: > 100 µM (inactive)
SNB-19
  GI50: > 100 µM (inactive)
RXF 631
  GI50: > 100 µM (inactive)
ACHN
  GI50: > 100 µM (inactive)
OVCAR-3
  GI50: > 100 µM (inactive)
SK-MEL-28
  GI50: > 100 µM (inactive)
CCRF-CEM
  GI50: > 100 µM (inactive)
SF-295
  GI50: > 100 µM (inactive)
EKVX
  GI50: > 100 µM (inactive)
HL-60
  GI50: > 100 µM (inactive)
M19-MEL
  GI50: > 100 µM (inactive)
NCI-H226
  GI50: > 100 µM (inactive)
A549
  GI50: > 100 µM (inactive)
HCT-116
  GI50: > 100 µM (inactive)
UO-31
  GI50: > 100 µM (inactive)
UACC-62
  GI50: > 100 µM (inactive)
TK-10
  GI50: > 100 µM (inactive)
SK-OV-3
  GI50: > 100 µM (inactive)
OVCAR-8
  GI50: > 100 µM (inactive)
786-0
  GI50: > 100 µM (inactive)
KM-20L2
  GI50: > 100 µM (inactive)
SF-268
  GI50: > 100 µM (inactive)
NCI-H460
  GI50: > 100 µM (inactive)

## CCOC(=O)/C(C)=C(/O)C(=O)OCC
U-251
  GI50: > 100 µM (inactive)
DMS-273
  GI50: > 100 µM (inactive)
KM12
  GI50: > 100 µM (inactive)
HCC 2998
  GI50: > 100 µM (inactive)
LXFL 529
  GI50: > 100 µM (inactive)
MOLT-4
  GI50: > 100 µM (inactive)
COLO 205
  GI50: > 100 µM (inactive)
SK-MEL-2
  GI50: > 100 µM (inactive)
UACC-257
  GI50: > 100 µM (inactive)
SK-MEL-5
  GI50: > 100 µM (inactive)
DMS-114
  GI50: > 100 µM (inactive)
OVCAR-5
  GI50: > 100 µM (inactive)
HOP-92
  GI50: > 100 µM (inactive)
HT-29
  GI50: > 100 µM (inactive)
RXF 393
  GI50: > 100 µM (inactive)
SN12C
  GI50: > 100 µM (inactive)
NCI-H23
  GI50: > 100 µM (inactive)
Malme-3M
  GI50: > 100 µM (inactive)
SNB-78
  GI50: > 100 µM (inactive)
DLD-1
  GI50: > 100 µM (inactive)
XF498
  GI50: > 100 µM (inactive)
SNB-75
  GI50: > 100 µM (inactive)
HOP-18
  GI50: > 100 µM (inactive)
SF-539
  GI50: > 100 µM (inactive)
HCT-15
  GI50: > 100 µM
LOX IMVI
  GI50: > 100 µM (inactive)
HOP-62
  GI50: > 100 µM (inactive)
SNB-19
  GI50: > 100 µM (inactive)
RXF 631
  GI50: > 100 µM (inactive)
K562
  GI50: > 100 µM (inactive)
ACHN
  GI50: > 100 µM (inactive)
OVCAR-3
  GI50: > 100 µM (inactive)
SK-MEL-28
  GI50: > 100 µM (inactive)
IGROV-1
  GI50: > 100 µM (inactive)
CAKI-1
  GI50: > 100 µM (inactive)
CCRF-CEM
  GI50: > 100 µM (inactive)
SF-295
  GI50: > 100 µM (inactive)
NCI-H522
  GI50: > 100 µM (inactive)
M14
  GI50: > 100 µM (inactive)
EKVX
  GI50: > 100 µM (inactive)
A498
  GI50: > 100 µM (inactive)
HL-60
  GI50: > 100 µM (inactive)
NCI-H226
  GI50: > 100 µM (inactive)
OVCAR-4
  GI50: > 100 µM (inactive)
A549
  GI50: > 100 µM (inactive)
HCT-116
  GI50: > 100 µM (inactive)
UO-31
  GI50: > 100 µM (inactive)
UACC-62
  GI50: > 100 µM (inactive)
TK-10
  GI50: > 100 µM (inactive)
RPMI-8226
  GI50: > 100 µM (inactive)
SK-OV-3
  GI50: > 100 µM (inactive)
OVCAR-8
  GI50: > 100 µM (inactive)
786-0
  GI50: > 100 µM (inactive)
SF-268
  GI50: > 100 µM (inactive)
NCI-H460
  GI50: > 100 µM (inactive)
SW-620
  GI50: > 100 µM (inactive)
